“Also recorded” adds a separate entry of the source.
How the values were obtained:
[1] = target: sphingosine kinase-1/SphK1 (Homo sapiens, UniProt Q9NYA1); conditions: cited from earlier work
[2] = tested on: bleomycin-challenged C57BL/6J mice; experiment: Bleomycin-induced pulmonary fibrosis in mice treated with PF-543; format: in vivo; conditions: PF-543 i.p. 5 mg/kg twice per week
Experimental: In Vivo Studies. In this analysis, 8 week-old, wild-type, C57BL/6J mice were treated with 1.5 U/kg bleomycin.

[3] = tested on: human lung fibroblasts; experiment: TGF-β-mediated differentiation of human lung fibroblasts, PF-543; format: cell-based
Source text: TGF-β-induced fibroblast differentiation was characterized to analyze the expression of fibronectin and α-SMA. […] Additionally, compared with the control mouse lung fibroblast (from wild-type mice), TGF-β-induced fibroblast differentiation and expression of YAP1 were dramatically lower in the lung fibroblast isolated from SphK1^−/− mice. Accordingly, selective inhibition of SphK1 is useful in the prevention and treatment of bleomycin-induced pulmonary fibrosis.

[4] = tested on: adult mice exposed to oxygen (75%); experiment: Hyperoxia-induced lung injury in adult mice; format: in vivo; conditions: 5 mg/kg/d PF-543 x 2 days prior to oxygen (75%)
[5] = tested on: newborn mice exposed to hyperoxia (75%); experiment: Hyperoxia-induced lung injury in newborn mice; format: in vivo; conditions: PF-543 20 mg/kg/day
Source text: Therefore, PF-543 protected the lungs of the newborn mice from oxygen injury.

[6] = tested on: HLMVECs; experiment: Hyperoxia-induced S1P generation, p47phox activation and ROS generation in HLMVECs, PF-543; format: cell-based, human
Source text: HLMVECs were transfected with p47-roGFP prior to exposure to hyperoxia.

[7] = tested on: S1P receptors; conditions: cited from earlier work
[8] = cited from earlier work
[9] = tested on: rats exposed to hypoxia; conditions: SKI-II 10 mg/kg intraperitoneally, once every other day for 3.5 weeks; vs vehicle; cited from earlier work
[10] = tested on: human lung microvascular endothelial cells (HLMVECs); conditions: SKI-II, cited from earlier work
[11] = tested on: bleomycin-challenged mice; conditions: SKI-II eight days post-bleomycin challenge; cited from earlier work
[12] = tested on: human lung fibroblasts; conditions: SKI-II; cited from earlier work
[13] = tested on: irradiated C57B1/6 mice; conditions: 20 Gy thoracic irradiation, cited from earlier work
[14] = PF-543 1-5 μM, 1 hour pretreatment, TGF-β 5 ng/ml, 48 hours
[15] = 0.375 mg/kg myriocin p.o. 3x/week, 0.375 mg/kg

Sequence of sphingosine kinase-1/SphK1 (Q9NYA1 whole entry): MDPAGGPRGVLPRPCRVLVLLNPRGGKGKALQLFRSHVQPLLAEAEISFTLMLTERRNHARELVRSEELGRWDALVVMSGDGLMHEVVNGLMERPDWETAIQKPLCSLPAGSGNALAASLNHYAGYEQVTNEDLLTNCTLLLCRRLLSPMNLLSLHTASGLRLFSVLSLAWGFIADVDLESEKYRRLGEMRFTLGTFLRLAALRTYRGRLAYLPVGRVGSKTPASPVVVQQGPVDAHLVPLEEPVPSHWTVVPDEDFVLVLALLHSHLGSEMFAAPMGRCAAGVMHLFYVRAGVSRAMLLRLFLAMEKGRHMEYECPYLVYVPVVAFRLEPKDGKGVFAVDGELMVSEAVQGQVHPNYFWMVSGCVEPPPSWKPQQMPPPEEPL

## CCCCCCCCCCCCc1ccc(C(=O)NC2(C(=N)N)CC2)cc1 [Compound 1]
[1]
  selectivity for SphK1 over SphK2: 5 fold

## CCCCCCCCCCCCc1ccc(NC(=O)C2(C(=N)N)CC2)cc1 [Compound 2]
[1]
  Ki: 0.3 µM
  selectivity for SphK1 over SphK2: 40 fold

## N=C(N)C1(C(=O)NCCCCCCCCCCOCC2CCCCC2)CC1 [Compound 4]
[1]
  selectivity for SphK1 over SphK2: 470 fold

## N=C(N)[C@@H]1CCCN1C(=O)c1ccc(-c2nc(-c3cccc(CCC4CCCCC4)c3)co2)cc1 [Compound 5]
[1]
  selectivity for SphK1 over SphK2: 180 fold

## CCCCCCCCCCCCCCC[C@@H](O)C(C)N (stereo partly shown) [Compound 55-21]
[1]
  IC50: 7.1 µM
  selectivity for SphK1 over SphK2: ~108 fold

## Cc1cc(CS(=O)(=O)c2ccccc2)cc(OCc2ccc(CN3CCC[C@@H]3CO)cc2)c1 [PF-543, [(2R)-1-[[4-[[3-(benzenesulfonylmethyl)-5-methylphenoxy]methyl]phenyl]methyl]pyrrolidin-2-yl] methanol]
[2]; 1.5 U/kg bleomycin, day 7 to 21 post-bleomycin, 5 mg/kg
  protection against lung injury and pulmonary fibrosis: ameliorates; also recorded: partly protected
[2]; day 7 to 21 post-bleomycin
  TGF-β levels in bronchoalveolar lavage (BAL) fluids: decreased
  expression of α-SMA and fibronectin in lung tissues: decreased
[2]; day 7 to 21 post-bleomycin, vs bleomycin without PF-543
  total collagen deposition: decreased
[2]; day 21 to 42 post-bleomycin
  Ashcroft's score: decrease
  collagen deposition: decrease
  resolution of pulmonary fibrosis: enhanced resolution
[3]; [14]
  TGF-β-induced expression of fibronectin and α-SMA: decreased; also recorded: dramatically inhibited
  TGF-β-mediated fibroblast differentiation to myofibroblasts: attenuated; also recorded: dramatically inhibited
[3]; PF-543 pretreatment, TGF-β
  TGF-β-induced expression of YAP1: attenuated; also recorded: dramatically inhibited
[4]
  BAL fluid total protein concentration: decreases; also recorded: reduced
  BAL inflammatory cell infiltrate (WBC count): decreases; also recorded: reduced
  hyperoxia-induced lung injury: attenuated
  lung inflammatory fluid infiltration (lung histology): reduced
[5]
  lung structure: well preserved
[6]
  attenuation of hyperoxia-mediated [32P]S1P generation: > 80%
  hyperoxia-induced ROS generation: attenuates; also recorded: inhibited
[6]; exogenous S1P instead of hyperoxia
  exogenous S1P-mediated translocation of p47phox to cell periphery / activation: not affected; also recorded: did not affect
[6]; live cell imaging, HLMVECs transfected with p47-roGFP
  hyperoxia-induced aggregation and stimulation of p47phox biosensor protein (p47-roGFP): suppressed
[6]; pre-treated with PF-543
  hyperoxia-induced p47phox translocation to cell periphery / activation of p47phox: inhibited; also recorded: attenuated
[7]
  affinity toward S1P receptors: does not exhibit any affinity
[8]
  cell permeability: cell-permeable

## CCCCCCCCCCCCCC#CC(=O)C1COC(C)(C)N1C(=O)OC(C)(C)C (stereo not shown) [SKI 5C]
[1]
  IC50: 3.3 µM

## Oc1ccc(Nc2nc(-c3ccc(Cl)cc3)cs2)cc1 [SKI-II, 4-[[4-(4-chlorophenyl)-2-thiazolyl]amino]-phenol]
[9]
  development of HPH (RVSP, RVH, pulmonary vascular remodeling): prevents
[10]; 24 hours before hyperoxia (95% O2) for 3 hours
  ROS production under hyperoxia (DCFDA fluorescence): blocked
[10]
  hyperoxia-induced S1P generation: attenuates
[11]
  bleomycin-induced mortality: reduces
  bleomycin-induced pulmonary fibrosis: reduces
[12]
  S1P generation and TGF-β-mediated signal transduction: attenuates

## CCCCCCC(=O)CCCCCC/C=C/C[C@@H](O)[C@H](O)[C@@](N)(CO)C(=O)O [myriocin]
[13]; [15]
  radiation-induced pulmonary fibrosis (onset of RIF): decreases; also recorded: delays
  radiation-induced pulmonary inflammation: decreases; also recorded: reduces
[13]; 0.375 mg/kg myriocin p.o. 3x/week
  animal lifespan (survival): increased
[13]; myriocin
  SphK2 mRNA levels and protein expression: Neither parameter is affected
  expression of markers of fibrogenesis (collagen, α-SMA) in the lung: decreased
  radiation-increased SphK1 mRNA levels and SphK1 protein expression: decreased
  radiation-induced increase in total SphK activity in lung tissue: hinder; also recorded: inhibition
